In general, Ki refers to a dissociation constant, usually derived from enzyme kinetics or from competition with a known ligand. A lower Ki goes with a stronger hold on the target.

Bounds are passed on as bounds.

The assay deals with Histamine H2 receptor (Cavia porcellus, UniProt P47747).
Histamine H2 receptor, sequence (P47747 whole entry): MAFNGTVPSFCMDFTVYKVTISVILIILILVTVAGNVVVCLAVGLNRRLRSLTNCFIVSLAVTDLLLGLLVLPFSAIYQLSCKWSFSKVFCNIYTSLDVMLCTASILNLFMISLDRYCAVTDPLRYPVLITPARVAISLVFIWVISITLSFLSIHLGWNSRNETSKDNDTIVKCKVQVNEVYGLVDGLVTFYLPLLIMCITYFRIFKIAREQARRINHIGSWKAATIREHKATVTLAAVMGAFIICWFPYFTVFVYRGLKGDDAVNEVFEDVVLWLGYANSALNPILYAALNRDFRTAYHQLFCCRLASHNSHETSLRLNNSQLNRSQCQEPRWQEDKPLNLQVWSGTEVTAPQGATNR
Regarding `NC(N)=Nc1nc(CSCCC(N)=NS(N)(=O)=O)cs1`, the Ki stood at 12 nM.
As for `CNC(=S)NCCCc1cnc[nH]1`, the Ki is > 10000 nM.
`CNC(=S)NCCCCc1cnc[nH]1` [1-[4-(1H-imidazol-5-yl)butyl]-3-methylthiourea] showed a Ki of 3000 nM. This lies in the single-digit micromolar range.
In the case of `CN/C([CH-][N+](=O)[O-])=[NH+]\CCSCc1ccc(CN(C)C)o1`, the affinity, expressed as Ki, was 390 nM. Against the preceding compound, the Ki is about 7.7-fold lower.
With `CN(C)CCCSC(=N)N` [[3-(carbamimidoylsulfanyl)propyl]dimethylamine], the Ki was > 10000 nM.
Consider `C/N=C(\S)NCCSCc1[nH]cnc1C` [CAS_34839-70-8], for which the affinity corresponds to a Ki of 510 nM.
Take `Cc1nc[nH]c1CCN` [2-(5-methyl-1H-imidazol-4-yl)ethan-1-amine]: the Ki is > 10000 nM.
With `Cc1[nH]cnc1CSCCNC(=N)NCCCc1c[nH]cn1` [2-[3-(1H-imidazol-5-yl)propyl]-1-(2-{[(5-methyl-1H-imidazol-4-yl)methyl]sulfanyl}ethyl)guanidine], the inhibition constant (Ki) worked out at 63 nM.

(Values after BindingDB's records for doi:10.1038/304065a0 (Hoechst Pharmaceutical Research Laboratories, 1983).)
